In patent US7989628B2, “2-aminoquinolines” (Hoffmann-La Roche Inc., priority 2008, dated 2011) one finds Ki and melting point data, which are given here for 15 compounds.

Series [1] concerns the target T1, recombinant human 5-HT5A receptor (Homo sapiens, UniProt P47898).
T1 construct: expressed in transfected cells; host or cells: HEK-EBNA (Human Embryonic Kidney-EBNA) cells, transient cDNA expression; membranes
The experiment in a line: [3H]LSD radioligand binding assay. As to conditions: [3H]LSD approx. 1 nM; membranes from HEK-EBNA cells transiently expressing 5-HT5A; Ki by Cheng-Prussoff equation. On the procedure: A [^3H]LSD radioligand binding assay was used to determine the affinity of the compounds for the recombinant human 5-HT5A receptor, in membranes from transiently (cDNA) expressed 5-HT5A receptors in Human Embryonic Kidney-EBNA (HEK-EBNA) cells. Assay buffer consisted of Tris (50 mM) buffer containing 1 mM EGTA, 10 mM MgCl2 (pH 7.4) and 10 μM pargyline. The binding assay was carried out in 96-well-plates in the presence of [^3H]LSD (approximately 1 nM), approximately 2 μg/well of membrane protein, and 0.5 mg of Ysi-poly-1-lysine SPA beads in a final volume of 200 μl of buffer. Non-specific binding was defined using methiothepin 2 μM. Compounds were tested at 10 concentrations. All assays were conducted in duplicate and repeated at least two times. Assay plates were incubated for 120 min at room temperature before centrifugation. Bound ligand was determined using a Packard Topcount scintillation counter. IC50 values were calculated using a non-linear curve fitting program and Ki values calculated using the Cheng-Prussoff equation.

T1 sequence (P47898 whole entry): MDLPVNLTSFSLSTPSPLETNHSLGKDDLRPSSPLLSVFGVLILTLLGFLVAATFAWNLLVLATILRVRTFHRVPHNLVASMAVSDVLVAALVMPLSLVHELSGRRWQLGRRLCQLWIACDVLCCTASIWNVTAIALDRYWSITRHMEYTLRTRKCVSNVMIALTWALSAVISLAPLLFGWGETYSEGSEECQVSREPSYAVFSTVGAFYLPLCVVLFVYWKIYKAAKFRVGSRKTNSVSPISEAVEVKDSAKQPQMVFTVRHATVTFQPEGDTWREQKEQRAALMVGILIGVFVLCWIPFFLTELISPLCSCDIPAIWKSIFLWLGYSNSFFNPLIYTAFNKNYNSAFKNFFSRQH

For `Nc1cccc2nc(NCc3ccccc3OC(F)(F)F)ccc12` [Example 13, N^2-(2-Trifluoromethoxy-benzyl)-quinoline-2,5-diamine], in series [1], the inhibition constant Ki came out at 93.9 nM.
Still for that read-out and setting: the value for `CC1(C)Cc2cccc(Nc3ccc4c(N)cccc4n3)c2O1` [Example 16, N^2-(2,2-Dimethyl-2,3-dihydro-benzofuran-7-yl)-quinoline-2,5-diamine] was 44.4 nM; that for `CSCCNc1cccc2nc(NCc3ccc(C)o3)ccc12` [Example 9, N^2-(5-Methyl-furan-2-ylmethyl)-N^5-(2-methylsulfanyl-ethyl)-quinoline-2,5-diamine] was 81.2 nM.
In turn, `COc1ccccc1CNc1ccc2c(C(=N)NO)cccc2n1` [Example 32, N-Hydroxy-2-(2-methoxy-benzylamino)-quinoline-5-carboxamidine] returned a melting point of 161 °C. Further, the Ki in series [1] came out at 44.7 nM.
With `Cc1ccc(CNc2ccc3c(NCC[S+](C)[O-])cccc3n2)o1` (stereo not shown) [Example 10, N^5-(2-Methanesulfinyl-ethyl)-N^2-(5-methyl-furan-2-ylmethyl)-quinoline-2,5-diamine], in series [1], the inhibition constant (Ki) stood at 99.3 nM.
Still for that read-out and setting: the value for `Cc1ccc(CNc2ccc3c(NS(=O)(=O)N(C)C)cccc3n2)o1` [Example 20, N,N-dimethyl-N′-(2-{[(5-methyl-2-furyl)methyl]amino}quinolin-5-yl)sulfamide] was 60.4 nM.
Consider `CC1Cc2cccc(Nc3ccc4c(N)cccc4n3)c2O1` (stereo not shown) [Example 15, N^2-(2-Methyl-2,3-dihydro-benzofuran-7-yl)-quinoline-2,5-diamine], for which, in series [1], the inhibition constant (Ki) stood at 49.4 nM.
Same read-out and setting: the value for `Nc1cccc2nc(Nc3cccc(C4CC4)c3)ccc12` [Example 18, N^2-(3-Cyclopropyl-phenyl)-quinoline-2,5-diamine] was 71.2 nM; that for `Cc1cc2cccc(Nc3ccc4c(N)cccc4n3)c2o1` [Example 14, N^2-(2-Methyl-benzofuran-7-yl)-quinoline-2,5-diamine] was 112 nM; that for `COc1ccccc1CNc1ccc2c(N)cccc2n1` [Example 1, N^2-(2-Methoxy-benzyl)-quinoline-2,5-diamine] was 27.3 nM.
Same read-out and setting: the value for `CC1Cc2cccc(Nc3ccc4c(NS(=O)(=O)N(C)C)cccc4n3)c2O1` (stereo not shown) [Example 21, N,N-dimethyl-N′-{2-[(2-methyl-2,3-dihydro-1-benzofuran-7-yl)amino]quinolin-5-yl}sulfamide] was 101 nM.
The same measure, in the same setting: under `Cc1ccc(CNc2ccc3c(CCCCO)cccc3n2)o1` [Example 26, 4-{2-[(5-Methyl-furan-2-ylmethyl)-amino]-quinolin-5-yl}-butan-1-ol] stands 61.8 nM; under `COc1ccccc1CNc1ccc2c(OCCSC)cccc2n1` [Example 30, (2-Methoxy-benzyl)-[5-(2-methylsulfanyl-ethoxy)-quinolin-2-yl]-amine], 219 nM.
As to `Cc1ccc(CNc2ccc3c(N)cccc3n2)o1` [Example 2, N^2-(5-Methyl-furan-2-ylmethyl)-quinoline-2,5-diamine], in series [1], the Ki is 83.8 nM.
The same measure, in the same setting: the value for `Cc1ccc(CNc2ccc3c(NC4CCOCC4)cccc3n2)o1` [Example 7, N^2-(5-Methyl-furan-2-ylmethyl)-N^5-(tetrahydro-pyran-4-yl)-quinoline-2,5-diamine] was 92 nM.

A word on the Ki: it is the equilibrium dissociation constant of an inhibitor or competing ligand from its target. Usually melting point stands for the temperature, or range, at which the solid turns liquid.
